Earlier results on 37 compounds are cited in PMC10386743, “Application of Ligand- and Structure-Based Prediction Models for the Design of Alkylhydrazide-Based HDAC3 Inhibitors as Novel Anti-Cancer Compounds” (Pharmaceuticals, 2023).

Like-named read-outs stand apart in the source and are kept apart here.

This series relates to recombinant human HDAC3. As to conditions: recombinant human HDAC3, Boc-Lys(acetyl)-AMC.

Regarding `CCCCCNNC(=O)c1ccc(CNC(=O)/C=C/c2ccccc2)cc1` [Compound 28], the “pIC50 HDAC3 (HDAC3 experimental pIC50)” value (supplement prints Ref. [50]) is given as 7.49.

In the case of `CCCNNC(=O)c1ccc(OCc2ccccc2)cc1` [Compound 27], the “pIC50 HDAC3 (HDAC3 experimental pIC50)” value (supplement prints Ref. [48]) is 7.61.

`CCCNNC(=O)c1ccc(CNC(=O)c2cc3cc(Cl)ccc3o2)cc1` [Compound 5]: the “pIC50 HDAC3 (HDAC3 experimental pIC50)” value (supplement Ref. [46]) is given as 9.21.

As to `CCCNNC(=O)c1ccc(CNC(=O)c2cc3cc(Br)ccc3o2)cc1` [Compound 42], where the note is “supplement Ref. [46]”, the “pIC50 HDAC3 (HDAC3 experimental pIC50)” value is given as 9.21.

Regarding `CCCCNNC(=O)c1cccc2ccccc12` [Compound 60], the “pIC50 HDAC3 (HDAC3 experimental pIC50)” value (supplement prints Ref. [50]) is on record as less than 5.00.

Regarding `CCCNNC(=O)c1ccc(CNC(=O)c2ccccc2)cc1` [Compound 20], the “pIC50 HDAC3 (HDAC3 experimental pIC50)” value (supplement prints Ref. [50]) was 8.46.

In the case of `CCCNNC(=O)c1ccc(CNC(=O)c2cc3ccccc3[nH]2)cc1` [Compound 4], under “supplement Ref. [46]”, the “pIC50 HDAC3 (HDAC3 experimental pIC50)” value is 9.36.

For the compound `CCCCNNC(=O)c1cccnc1` [Compound 39], the “pIC50 HDAC3 (HDAC3 experimental pIC50)” value (supplement prints Ref. [50]) is 5.81.

For `CCCCNNC(=O)c1ccc(Oc2ccccc2)cc1` [Compound 52], for the setting “supplement prints Ref. [50]”, the “pIC50 HDAC3 (HDAC3 experimental pIC50)” value is on record as 6.51.

Take `CCCNNC(=O)c1ccc(CNC(=O)c2nc3ccccc3s2)cc1` [Compound 12]: the “pIC50 HDAC3 (HDAC3 experimental pIC50)” value (supplement Ref. [46]) is recorded as 8.88.

`CCCCNNC(=O)c1ccco1` [Compound 58]: under “supplement prints Ref. [50]”, the “pIC50 HDAC3 (HDAC3 experimental pIC50)” value is given as 5.30.

Regarding `C#CCOc1ccc2oc(C(=O)NCc3ccc(C(=O)NNCCC)cc3)cc2c1` [Compound 8], the “pIC50 HDAC3 (HDAC3 experimental pIC50)” value (supplement Ref. [46]) is 9.07.

`CCCNNC(=O)c1ccc(CNC(=O)c2ccc3ccncc3c2)cc1` [Compound 16]: the “pIC50 HDAC3 (HDAC3 experimental pIC50)” value (supplement Ref. [46]) is 8.81.

Consider `CCCNNC(=O)c1ccc(CNC(=O)c2nc3ccccc3[nH]2)cc1` [Compound 14], for which the “pIC50 HDAC3 (HDAC3 experimental pIC50)” value (supplement Ref. [46]) was 8.84.

`CCCCNNC(=O)c1ccc(OC)cc1` [Compound 31]: where the note is “supplement prints Ref. [50]”, the “pIC50 HDAC3 (HDAC3 experimental pIC50)” value is given as 6.80.

On to `CCCCCCNNC(=O)c1ccc(CNC(=O)c2ccccc2)cc1` [Compound 32], for which the “pIC50 HDAC3 (HDAC3 experimental pIC50)” value (supplement prints Ref. [50]) is reported as 6.73.

Take `CC(C)NNC(=O)c1ccc(CNC(=O)c2ccccc2)cc1` [Compound 61]: the “pIC50 HDAC3 (HDAC3 experimental pIC50)” value (supplement prints Ref. [50]) is listed as less than 5.00.

As for `CCCNNC(=O)c1cccc(CN(CCc2c(C)[nH]c3ccccc23)C(=O)OC(C)(C)C)c1` [Compound 57], the “pIC50 HDAC3 (HDAC3 experimental pIC50)” value (supplement prints Ref. [48]) is given as 5.30.

Take `CCCNNC(=O)/C=C/c1ccc(CNCCc2c(C)[nH]c3ccccc23)cc1` [Compound 2]: the “pIC50 HDAC3 (HDAC3 experimental pIC50)” value (supplement prints Ref. [48]) is 9.55.

For the compound `CCCNNC(=O)c1ccc(NCc2ccccc2)cc1` [Compound 22], the “pIC50 HDAC3 (HDAC3 experimental pIC50)” value (supplement prints Ref. [48]) was 8.21.

As to `Cc1[nH]c2ccccc2c1CCNCc1ccc(/C=C/C(=O)NNCCN)cc1` [Compound 59], the “pIC50 HDAC3 (HDAC3 experimental pIC50)” value (supplement prints Ref. [48]) is recorded as 5.28.

In the case of `CCCNNC(=O)c1ccc(CNC(=O)c2cc3ccccc3cn2)cc1` [Compound 15], the “pIC50 HDAC3 (HDAC3 experimental pIC50)” value (supplement Ref. [46]) is reported as 8.83.

Turning to `O=C(NCc1ccc(C(=O)NNCC2CCC2)cc1)c1ccccc1` [Compound 50], the “pIC50 HDAC3 (HDAC3 experimental pIC50)” value (supplement prints Ref. [50]) is 7.07.

As for `CCCCNNC(=O)/C=C/c1ccccc1` [Compound 33], the “pIC50 HDAC3 (HDAC3 experimental pIC50)” value (supplement prints Ref. [50]) was 6.53.

As for `CCCCCCCCCCNNC(=O)c1ccc(CNC(=O)c2ccccc2)cc1` [Compound 63], under “supplement prints Ref. [50]”, the “pIC50 HDAC3 (HDAC3 experimental pIC50)” value is given as less than 5.00.

`CCCCNNC(=O)c1cc2ccccc2o1` [Compound 54]: the “pIC50 HDAC3 (HDAC3 experimental pIC50)” value (supplement prints Ref. [50]) is given as 5.87.

With `CCCNNC(=O)c1ccc(CNCc2ccccc2)cc1` [Compound 30], the “pIC50 HDAC3 (HDAC3 experimental pIC50)” value (supplement prints Ref. [48]) is given as 7.01.

As for `CCCCCCCNNC(=O)c1ccc(CNC(=O)c2ccccc2)cc1` [Compound 35], the “pIC50 HDAC3 (HDAC3 experimental pIC50)” value (supplement prints Ref. [50]) is listed as 6.25.

As to `CCCNNC(=O)c1ccc(CNC(=O)c2cc3cc(F)ccc3o2)cc1` [Compound 7], the “pIC50 HDAC3 (HDAC3 experimental pIC50)” value (supplement Ref. [46]) is reported as 9.08.

In the case of `CCCNNC(=O)c1ccc(CNC(=O)c2cc3cc(Cl)ccc3[nH]2)cc1` [Compound 6], the “pIC50 HDAC3 (HDAC3 experimental pIC50)” value (supplement Ref. [46]) is 9.18.

As to `CCCNNC(=O)c1ccc(CNC(=O)c2cc3ccccc3o2)cc1` [Compound 3], the “pIC50 HDAC3 (HDAC3 experimental pIC50)” value (supplement Ref. [46]) is recorded as 9.42.

As for `CCCNNC(=O)c1ccc(CNC(=O)/C=C/c2ccccc2)cc1` [Compound 10], the “pIC50 HDAC3 (HDAC3 experimental pIC50)” value (supplement prints Ref. [50]) was 9.02.

Turning to `COC(=O)CCNNC(=O)/C=C/c1ccc(CNCCc2c(C)[nH]c3ccccc23)cc1` [Compound 34], the “pIC50 HDAC3 (HDAC3 experimental pIC50)” value (supplement prints Ref. [48]) is 6.51.

Regarding `CCCNNC(=O)c1ccc(NC(=O)c2ccccc2)cc1` [Compound 46], the “pIC50 HDAC3 (HDAC3 experimental pIC50)” value (supplement prints Ref. [48]) was 7.31.

`C/C=C/CNNC(=O)c1ccc(CNC(=O)c2ccccc2)cc1` [Compound 55]: where the note is “supplement prints Ref. [50]”, the “pIC50 HDAC3 (HDAC3 experimental pIC50)” value is given as 5.81.

As for `CCCCNNC(=O)c1cccs1` [Compound 38], the “pIC50 HDAC3 (HDAC3 experimental pIC50)” value (supplement prints Ref. [50]) is on record as 6.04.

Turning to `CCCNNC(=O)c1ccc(CNCCc2c(C)[nH]c3ccccc23)cc1` [Compound 26], the “pIC50 HDAC3 (HDAC3 experimental pIC50)” value (supplement prints Ref. [48]) is reported as 7.70.
